Patent US20130189255A1, “FUSIONS AND CONJUGATES OF INSULINOTROPIC AGENTS” (GLAXO GROUP LIMITED, priority 2008, published 2013)
Like-named read-outs stand apart in the source and are kept apart here. Marks after values point to notes of the source that are not given here.

Columns and labels:
human GLP-1 receptor = molecular target: T1, human GLP-1 receptor (Homo sapiens, UniProt P43220); experiment: GLP-1 receptor binding assay (GLP-1R BA), CHO 6CRE GLP1R luciferase reporter cells; format: cell-based
T1 construct: expressed in transfected cells; host or cells: CHO K1 (CHO 6CRE GLP1R)
T1 sequence (P43220 24-463): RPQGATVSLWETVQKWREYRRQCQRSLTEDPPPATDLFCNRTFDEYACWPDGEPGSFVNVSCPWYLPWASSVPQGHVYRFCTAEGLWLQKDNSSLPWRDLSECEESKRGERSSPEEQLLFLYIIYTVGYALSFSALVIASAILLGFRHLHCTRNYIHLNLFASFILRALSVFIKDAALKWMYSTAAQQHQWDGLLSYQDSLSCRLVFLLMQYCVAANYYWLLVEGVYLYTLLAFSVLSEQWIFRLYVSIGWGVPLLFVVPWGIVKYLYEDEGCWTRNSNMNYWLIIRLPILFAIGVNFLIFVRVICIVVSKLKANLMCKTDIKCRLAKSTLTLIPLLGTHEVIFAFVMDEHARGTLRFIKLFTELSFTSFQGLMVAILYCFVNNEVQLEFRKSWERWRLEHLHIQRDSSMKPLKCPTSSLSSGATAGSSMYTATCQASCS
Description: Fusions were buffer exchanged into 100 mM […], 20 mM citrate pH 6.2. […] Suspension culture was maintained for 24 hours. Cells were then diluted into 15 mM HEPES buffer (obtainable from Sigma), containing 2 mM L glutamine (2.5×10^5 cells/ml) and dispensed into 384-well plates containing 10 ul/well of the compound to be assayed. After the addition of assay control, plates were returned to the incubator for 3 h at 37° C. and 5% CO2. After the incubation, steady glo luciferase substrate (obtainable from Promega) was added to the wells as described in the kit and the plates sealed with self-adhesive plate seals (Weber Marking Systems Inc. Cat. No. 607780). Plates were placed in the reader (Viewlux, Perkin Elmer) and pre-incubated for 5 minutes prior to reading the […] and plotting of results. Compound was assayed at a range of concentrations in the presence and absence of 10 uM albumin, allowing a dose response curve to be fitted with and without the albumin.

db/db mice = experiment: Oral glucose tolerance test (OGTT) in db/db mouse model of type II diabetes; format: in vivo
Text: Animals were sorted by decreasing glucose levels three days prior to the start of the experiment and then blocked. One animal within each block was then assigned to each of the 26 study groups. This ensured similar mean starting glucose level in each of the study groups.

[1] = test system: diet induced obese (DIO) mice; experiment: Diet induced obese (DIO) mouse model of obesity; format: in vivo; settings: 0.01, 0.1, 1 mg/Kg sc, 10 days, compared to DOM7h-14 control
Description: This may be predictive for humans. Male C57B1/6 mice (purchased from Taconic) were fattened on 60% kcal high fat irradiated diet for 12 wks and then transferred to the in-house facility. Upon arrival, the mice were individually housed on alpha-dri bedding in a temperature and humidity controlled room (70-72° F., Humidity=48-50%, 5 AM/5 PM light cycle). The diet was changed to 45% high fat diet and the animals acclimated for 18 days. Prior to administration of test compound, mice were injected subcutaneously with saline once daily for three days and food consumption monitored. Mice were blocked and grouped such that body weight and food consumption were not different between or within groups.
Daily food consumption and body weight were measured daily for 10 days. […] It was therefore concluded that the data from this mouse study supports the hypothesis that DAT0115 would be a good clinical candidate.

HSA = HSA (Homo sapiens, UniProt P02768); format: binding
Description: (§1) The analysis was performed using a streptavidin chip (SA) coated with biotinylated serum albumin. 200-1000 resonance units (RUs) of each serum albumin was immobilised on the chip. Flow cell 1 was uncoated, flow cell 2 was coated with HSA, flow cell 3 was coated with RSA and flow cell 4 was coated with CSA. A range of concentrations of fusion was prepared (in the range 15.6 nM to 2 μM by dilution into BIACORE HBS-EP buffer (0.01M HEPES, pH7.4, 0.15M NaCl, 3 mM EDTA, 0.005% surfactant P20) and flowed across the BIACORE chip.
(§2) Affinity (KD) was calculated from the BIACORE traces by fitting on-rate and off-rate curves to traces generated by concentrations of dAb in the region of the KD.

CSA = CSA (Macaca fascicularis, UniProt A2V9Z4); experiment: Surface plasmon resonance (Biacore, streptavidin chip with biotinylated serum albumin), CSA; format: binding, cynomolgus monkey; settings: Biacore SA chip, HBS-EP buffer; read-out: Affinity (KD) to CSA
CSA, sequence (A2V9Z4 25-608): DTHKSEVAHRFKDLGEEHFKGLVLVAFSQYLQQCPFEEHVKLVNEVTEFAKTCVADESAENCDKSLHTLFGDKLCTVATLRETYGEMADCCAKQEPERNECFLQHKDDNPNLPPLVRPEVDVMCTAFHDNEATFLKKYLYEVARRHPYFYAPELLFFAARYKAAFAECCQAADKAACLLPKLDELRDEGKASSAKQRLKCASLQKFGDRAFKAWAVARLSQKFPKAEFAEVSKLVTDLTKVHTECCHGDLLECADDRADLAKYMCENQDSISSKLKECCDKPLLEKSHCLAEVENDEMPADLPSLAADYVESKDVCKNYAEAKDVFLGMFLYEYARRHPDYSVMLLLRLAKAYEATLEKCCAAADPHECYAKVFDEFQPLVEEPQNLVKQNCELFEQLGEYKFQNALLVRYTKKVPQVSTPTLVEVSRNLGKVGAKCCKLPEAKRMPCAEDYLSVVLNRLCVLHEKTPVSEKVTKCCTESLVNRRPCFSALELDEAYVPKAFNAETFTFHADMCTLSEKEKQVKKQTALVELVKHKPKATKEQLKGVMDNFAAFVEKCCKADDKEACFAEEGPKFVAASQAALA
Description: as §1, §2

## Exendin 4 (G4S linker)3 DOM7h-14 dAb fusion [DAT0115]
Human GLP-1 receptor; read-out: GLP-1R BA (10 uM albumin) EC50 (pM) n = 2, presence of 10 uM albumin
  EC50: 35 pM
Human GLP-1 receptor; read-out: GLP-1R BA EC50 (pM) n = 3, absence of albumin
  EC50: 8.9 pM
db/db mice; 0.1 mg/Kg and 0.3 mg/Kg doses sc
  timepoints out to which glucose AUC was significantly decreased compared to vehicle: ≤ 24 h
db/db mice; 0.1 mg/kg sc, OGTT +5 hrs relative to dosing
  percentage reduction in glucose AUC compared to vehicle: 60%*
db/db mice; 0.1 mg/kg sc, OGTT +24 hrs
  percentage reduction in glucose AUC compared to vehicle: 36%*
db/db mice; 0.1 mg/kg sc, OGTT +48 hrs
  percentage reduction in glucose AUC compared to vehicle: 28%
db/db mice; 0.1 mg/kg sc, OGTT +72 hrs
  percentage reduction in glucose AUC compared to vehicle: 16%
db/db mice; 0.1 mg/kg sc, OGTT +96 hrs
  percentage reduction in glucose AUC compared to vehicle: −12%
db/db mice; 0.3 mg/kg sc, OGTT +24 hrs
  percentage reduction in glucose AUC compared to vehicle: 59%*
db/db mice; 0.3 mg/kg sc, OGTT +48 hrs
  percentage reduction in glucose AUC compared to vehicle: 26%
db/db mice; 0.3 mg/kg sc, OGTT +72 hrs
  percentage reduction in glucose AUC compared to vehicle: 26%
db/db mice; 1 mg/Kg dose sc
  timepoints out to which glucose AUC was significantly decreased compared to vehicle: ≤ 72 h
db/db mice; 1 mg/kg sc, OGTT +5 hrs
  percentage reduction in glucose AUC compared to vehicle: 76%*
db/db mice; 1 mg/kg sc, OGTT +24 hrs
  percentage reduction in glucose AUC compared to vehicle: 50%*
db/db mice; 1 mg/kg sc, OGTT +48 hrs
  percentage reduction in glucose AUC compared to vehicle: 37%*
db/db mice; 1 mg/kg sc, OGTT +72 hrs
  percentage reduction in glucose AUC compared to vehicle: 41%*
db/db mice; 1 mg/kg sc, OGTT +96 hrs
  percentage reduction in glucose AUC compared to vehicle: 12%
[1]
  body weight: dose dependent reduction
  food consumption: dose dependent reduction
HSA
  Kd: 600 nM
CSA
  Kd: 2000 nM
